# Where two headings read alike, the source gives them in different places.
# Legend:
# [1] = biological target: T1, MOR (Mus musculus, UniProt P42866); assay: Competition radioligand binding at the MOR; conditions: [3H]naloxone, CHO cells expressing mouse MOR
# [2] = biological target: T1, MOR; conditions: cited from earlier work
# [3] = system: MOR; conditions: peripherally selective MOR antagonist; cited from earlier work
# [4] = biological target: T1, MOR; conditions: read-out: Ki (nM) MOR; ref 57a; cited from earlier work
# [5] = biological target: DOR (Mus musculus, UniProt P32300); conditions: ref 57a, cited from earlier work
# DOR, sequence (P32300 whole entry): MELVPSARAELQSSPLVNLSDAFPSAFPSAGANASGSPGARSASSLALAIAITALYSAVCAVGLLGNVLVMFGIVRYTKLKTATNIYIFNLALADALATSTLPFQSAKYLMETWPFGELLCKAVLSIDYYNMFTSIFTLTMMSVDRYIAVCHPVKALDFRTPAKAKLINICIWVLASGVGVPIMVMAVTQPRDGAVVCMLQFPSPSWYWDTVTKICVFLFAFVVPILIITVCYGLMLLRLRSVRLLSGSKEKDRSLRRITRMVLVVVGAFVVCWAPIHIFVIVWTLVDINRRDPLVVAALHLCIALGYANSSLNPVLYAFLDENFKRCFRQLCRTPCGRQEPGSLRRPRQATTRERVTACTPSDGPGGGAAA
# [6] = biological target: T2, KOR (Mus musculus, UniProt P33534); conditions: ref 57a, cited from earlier work
# T2 sequence (P33534 whole entry): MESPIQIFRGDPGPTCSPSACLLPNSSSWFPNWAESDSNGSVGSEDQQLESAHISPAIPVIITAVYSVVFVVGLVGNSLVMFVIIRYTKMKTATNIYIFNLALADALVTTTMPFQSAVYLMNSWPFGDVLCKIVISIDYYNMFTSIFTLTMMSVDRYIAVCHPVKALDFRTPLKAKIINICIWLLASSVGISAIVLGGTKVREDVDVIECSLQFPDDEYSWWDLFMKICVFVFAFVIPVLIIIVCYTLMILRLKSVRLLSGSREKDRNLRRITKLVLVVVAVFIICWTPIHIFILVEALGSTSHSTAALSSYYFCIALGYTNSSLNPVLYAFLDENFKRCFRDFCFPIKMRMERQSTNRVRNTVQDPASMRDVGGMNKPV
# [7] = biological target: T2, KOR; conditions: read-out: Ki,κ; 50a; cited from earlier work
# T1 sequence (P42866 whole entry): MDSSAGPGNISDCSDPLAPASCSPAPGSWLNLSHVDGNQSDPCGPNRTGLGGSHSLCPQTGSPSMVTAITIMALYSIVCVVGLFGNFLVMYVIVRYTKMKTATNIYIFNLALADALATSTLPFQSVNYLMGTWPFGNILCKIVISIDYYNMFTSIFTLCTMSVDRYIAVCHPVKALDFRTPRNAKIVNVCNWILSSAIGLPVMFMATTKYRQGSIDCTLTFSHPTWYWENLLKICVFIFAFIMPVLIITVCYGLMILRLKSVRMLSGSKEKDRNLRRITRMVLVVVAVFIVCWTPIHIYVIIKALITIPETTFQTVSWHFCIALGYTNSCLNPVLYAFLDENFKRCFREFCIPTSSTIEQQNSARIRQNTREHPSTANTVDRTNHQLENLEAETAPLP
structure (smiles),measurement,setting,value
"COC(=O)c1cnccc1C(=O)N[C@@H]1CC[C@@]2(O)[C@H]3Cc4ccc(O)c5c4[C@@]2(CCN3CC2CC2)[C@H]1O5 [Compound 6, 17-Cyclopropylmethyl-3,14β-dihydroxy-4,5α-epoxy-6β-[(3′-methylformate-4′-pyridyl)acetamido]morphinan]",Ki (nM) MOR,[1],nanomolar binding affinity
"O=C(N[C@@H]1CC[C@@]2(O)[C@H]3Cc4ccc(O)c5c4[C@@]2(CCN3CC2CC2)[C@H]1O5)c1ccncc1 [NAP, 17-cyclopropylmethyl-3,14β-dihydroxy-4,5α-epoxy-6β-(4′-pyridylcarboxamido)-morphinan]",MOR [35S]GTPγS Binding % Emax of DAMGO,[2]; ref 44a,22.72 ± 0.84%
same,ED50,[3],8.8 µg/kg
"Cc1cnccc1C(=O)N[C@@H]1CC[C@@]2(O)[C@H]3Cc4ccc(O)c5c4[C@@]2(CCN3CC2CC2)[C@H]1O5 [NMP, 17-cyclopropylmethyl-3,14β-dihydroxy-4,5α-epoxy-6β-{[4′-(3′-methylpyridyl)]carboxamido}morphinan]",Ki,[4],0.58 ± 0.25 nM
same,EC50,"[2]; read-out: MOR [35S]GTPγS Binding EC50, ref 57a",1.52 ± 0.26 nM
same,MOR [35S]GTPγS Binding % Emax of DAMGO,[2]; ref 57a,30.63 ± 0.55%
same,Ki,[5]; read-out: Ki (nM) DOR,273.6 ± 1.8 nM
same,Selectivity δ/μ,[5],470
same,Ki,[6]; read-out: Ki (nM) KOR,96.7 ± 12.2 nM
same,Selectivity κ/μ,[6],166
Oc1ccc2c3c1O[C@H]1c4[nH]c5c(c4C[C@@]4(O)[C@@H](C2)N(CC2CC2)CC[C@]314)C[C@@]1(O)[C@H]2Cc3ccc(O)c4c3[C@@]1(CCN2CC1CC1)[C@H]5O4 [norBNI],Ki,[7],1.8 nM
